Measurements as given in a melting point compilation (Tetko et al.; mined from patent text by program, amines drawn as free bases though some values may be those of a salt).

Compared with `CN=Cc1c(C(=O)OC)[nH]c2c(C)ccc(C)c12`, `CCn1nnnc1SCc1c(S(C)(=O)=O)ccc(C(=O)OC2=CC(=O)CCC2)c1Cl` is lower in melting point: 261 to 262 °C for the first, 122 to 123 °C for the second.

Compared with `CN1C(=O)CC[C@]2(C)c3ccc(-c4ccc(Cl)cc4Cl)cc3CC[C@@H]12`, `CN1CCN(c2ccc(S(=O)(=O)Oc3c(Cl)cc(Cl)cc3Cl)cc2)C1=O` is higher in melting point: 45 to 48 °C for the first, 185 to 187 °C for the second.

Compared with `COC(=O)C1(Nc2cc(Cl)c(Cl)cc2N)CCSC1` (stereo not given), `Cc1cc2c(cc1S(=O)(=O)c1cc(Cl)cc(Cl)c1)OC(C(=O)O)O2` (stereo not given) is higher in melting point: 162 °C for the first, 210 to 214 °C for the second.

First: CC(C)CC(C(=O)O)c1cc(OCC2CC2)c(-c2ccc3nonc3c2)cc1F (stereo not given)
Second: CC(C)(O)CCOc1c(-c2ccc(S(C)(=O)=O)cc2)cnn(-c2ccc(F)c(Cl)c2)c1=O
The melting point of the first is higher: 110 to 111 °C for the first, 108 to 110 °C for the second.

First: CN1CCN(c2ncccc2C#N)C(c2ccccc2)C1 (stereo not given)
Second: O=C(c1cccc2cc[nH]c12)N1CCN(c2ccccc2)CC1
The melting point of the first is lower: 65.7 to 66.8 °C for the first, 217 to 219 °C for the second.

First: CC(C)(C)OCc1cc(Oc2ccc(C(F)(F)F)cc2Cl)ccc1[N+](=O)[O-]
Second: O=C(O)C1=Cc2cc(-c3ccc(C(F)(F)F)cc3)ccc2S(=O)(=O)CC1
The melting point of the first is lower: 75 to 78 °C for the first, greater than 300 °C for the second.

First: Nc1nccc(OCc2ccccc2)c1N
Second: CC(C)C(NS(=O)(=O)c1ccccc1)C(=O)NOCc1ccccc1 (stereo not given)
The melting point of the first is lower: 135 to 136 °C for the first, 163 to 165 °C for the second.

Compared with `CSc1ncc2cc(Br)c(=O)[nH]c2n1`, `Cc1ccc(C)c(COc2ccc(N)nn2)c1` is lower in melting point: 266 to 270 °C for the first, 109 to 111 °C for the second.

First: CCc1nnc(CCc2ccc(NC(=O)/C=C/c3cnn(C)c3-c3ccc(F)cc3)cc2)o1
Second: COc1ccc(CCc2nnc(-c3ccc4[nH]ncc4c3)o2)cc1C(F)(F)F
The melting point of the first is lower: 167 to 168 °C for the first, 192 to 193 °C for the second.

First: CC(CO)(CO)Nc1nc(SCc2cccc(F)c2F)nc2nc(N)cnc12
Second: OCc1ccc2c(c1)ncn2-c1cccc(-c2cccnc2)c1
The melting point of the first is higher: 220 to 227 °C for the first, 183 to 185 °C for the second.

Compared with `Clc1ccc(C#Cc2c3ccccc3c(C#Cc3ccc(Cl)cc3)c3ccccc23)cc1`, `O=C1N(c2ccc(Cl)cc2)c2ncccc2C1(Cc1ccccc1)Cc1ccncc1` (stereo not given) is lower in melting point: 268 °C for the first, 182 to 185 °C for the second.

First: ClC1=NC(Cl)(C(Cl)(Cl)C(Cl)(Cl)Cl)N=C1Cl
Second: CC(C)OC(=O)c1nc(Cl)c(Cl)[nH]1
The melting point of the first is lower: 74 to 75 °C for the first, 168 °C for the second.

First: NC(=O)c1ccc(F)c2c1OCC(N(CCCc1c[nH]c3ccc(F)cc13)C1CCC1)C2 (stereo not given)
Second: COc1cccc2c1CN(c1c(F)cc3c(=O)c(C(=O)O)cn4c3c1OCC4C)C2 (stereo not given)
The melting point of the first is lower: 132 °C for the first, 262 to 264 °C for the second.

First: CC1(c2oncc2C(=O)c2ccc(S(C)(=O)=O)cc2C(F)(F)F)CC1
Second: COc1cc(N2CCOCC2)ccc1C(=O)O
The melting point of the first is lower: 141 to 142 °C for the first, 158 to 160 °C for the second.

Compared with `NS(=O)(=O)c1ccc(C2CCCC2)cc1`, `O=C(Nc1ccc(C(CC2CCCC2)C(=O)Nc2nccs2)cc1)c1cccnc1` (stereo not given) is higher in melting point: 158 °C for the first, 240 to 242 °C for the second.

Compared with `CCCCCCCCCCOc1cc2c(cc1CCC(=O)O)C(=O)c1cc(C(=O)O)ccc1-2`, `COc1ccc(Cn2c(=O)c3ccccc3n(CCCCl)c2=O)cc1` is lower in melting point: 218 to 220 °C for the first, 124 to 125 °C for the second.

Compared with `COC(=O)Nc1cccc(OC(=O)N(CCC#N)c2ccccc2)c1`, `O=C(O)c1ccccc1-c1cc(-c2ccc(Cl)cc2)on1` is higher in melting point: 98 to 99 °C for the first, 174 to 176 °C for the second.

`O=C(O)CC(C(=O)O)C(=O)O` and `CCOC(=O)c1cc(Br)c2ccccn2c1=O` cannot be ordered by melting point: 157 to 159 °C for the first, 156 to 158 °C for the second.

First: CCCCN(CCCC)c1ccc(C=CC=CC2=C(C#N)C(=C(C#N)C#N)OC2(C)C)c(OC)c1
Second: C[C@@H]1CN(CC(=O)Nc2nc3ccccc3n2C)C[C@H](C)N1c1ncnc2sccc12
The melting point of the first is lower: 181 to 184 °C for the first, 200 °C for the second.

First: O=c1c2ccc(Cl)cc2[nH]c2c(O)nn(Cc3cc4ccccc4s3)c(=O)c12
Second: O=C(c1ccccc1)c1ccccc1C#CCN1C(=O)c2ccccc2C1=O
The melting point of the first is higher: greater than 300 °C for the first, 164 to 165 °C for the second.
